Laboratory results published in PubChem BioAssay (NCI).
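Each compound was tested at five concentrations against cells in 96-well plates for 48 hours. At the GI50, growth is halved. Definition used: TGI = concentration required for complete inhibition of growth.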

Key:
Assay in all cases: inhibition of tumour cell growth, NCI panel, 48 h
HCC-2998 colon = test system: HCC-2998 colon
BT-549 breast = test system: BT-549 breast
SF-539 CNS = test system: SF-539 CNS
TK-10 renal = test system: TK-10 renal
COLO 205 colon = test system: COLO 205 colon
OVCAR-3 ovarian = test system: OVCAR-3 ovarian
MCF7 breast = test system: MCF7 breast
786-0 renal = test system: 786-0 renal
SK-MEL-2 melanoma = test system: SK-MEL-2 melanoma
U251 CNS = test system: U251 CNS
HCT-116 colon = test system: HCT-116 colon
SK-MEL-5 melanoma = test system: SK-MEL-5 melanoma
HOP-92 NSCLC = test system: HOP-92 NSCLC
MDA-MB-435 = test system: MDA-MB-435
SNB-19 CNS = test system: SNB-19 CNS
OVCAR-5 ovarian = test system: OVCAR-5 ovarian
SNB-75 CNS = test system: SNB-75 CNS
IGROV1 ovarian = test system: IGROV1 ovarian
SW-620 colon = test system: SW-620 colon
SK-MEL-28 melanoma = test system: SK-MEL-28 melanoma
ACHN renal = test system: ACHN renal
M14 melanoma = test system: M14 melanoma
OVCAR-4 ovarian = test system: OVCAR-4 ovarian
SF-268 CNS = test system: SF-268 CNS
SN12C renal = test system: SN12C renal
NCI/ADR-RES ovarian = test system: NCI/ADR-RES ovarian
UACC-257 melanoma = test system: UACC-257 melanoma
MOLT-4 leukemia = test system: MOLT-4 leukemia
HL-60(TB) leukemia = test system: HL-60(TB) leukemia
HT29 colon = test system: HT29 colon
NCI-H460 lung = test system: NCI-H460 lung
T-47D breast = test system: T-47D breast
A498 renal = test system: A498 renal
NCI-H522 lung = test system: NCI-H522 lung
LOX IMVI melanoma = test system: LOX IMVI melanoma
KM12 colon = test system: KM12 colon
SK-OV-3 ovarian = test system: SK-OV-3 ovarian
CAKI-1 renal = test system: CAKI-1 renal
SF-295 CNS = test system: SF-295 CNS
CCRF-CEM leukemia = test system: CCRF-CEM leukemia
HS 578T breast = test system: HS 578T breast
MDA-MB-231 breast = test system: MDA-MB-231 breast
A549 NSCLC = test system: A549 NSCLC
OVCAR-8 ovarian = test system: OVCAR-8 ovarian
EKVX NSCLC = test system: EKVX NSCLC
UACC-62 melanoma = test system: UACC-62 melanoma
UO-31 renal = test system: UO-31 renal
RPMI-8226 leukemia = test system: RPMI-8226 leukemia
K-562 leukemia = test system: K-562 leukemia
HOP-62 NSCLC = test system: HOP-62 NSCLC
NCI-H226 lung = test system: NCI-H226 lung
PC-3 prostate = test system: PC-3 prostate
MALME-3M melanoma = test system: MALME-3M melanoma
RXF 393 renal = test system: RXF 393 renal
HCT-15 colon = test system: HCT-15 colon
SR leukemia = test system: SR leukemia
DU-145 prostate = test system: DU-145 prostate
NCI-H23 lung = test system: NCI-H23 lung

COc1ccc(COc2cc3oc(=O)c4cc(C(C)O)ccc4c3cc2OC)cc1 (centres undefined)
GI50 (HCC-2998 colon): > 31.4 µM
TGI (HCC-2998 colon): > 100 µM
GI50 (BT-549 breast): 10.1 µM
TGI (BT-549 breast): 49.4 µM
GI50 (SF-539 CNS): 9.97 µM
TGI (SF-539 CNS): 33 µM
GI50 (TK-10 renal): 17.4 µM
TGI (TK-10 renal): 62.6 µM
GI50 (COLO 205 colon): > 22.7 µM
TGI (COLO 205 colon): > 100 µM
GI50 (OVCAR-3 ovarian): 17.1 µM
TGI (OVCAR-3 ovarian): 63.1 µM
GI50 (MCF7 breast): 9.49 µM
TGI (MCF7 breast): > 100 µM
GI50 (786-0 renal): 13.1 µM
TGI (786-0 renal): 56.7 µM
GI50 (SK-MEL-2 melanoma): 7.69 µM
TGI (SK-MEL-2 melanoma): 30 µM
GI50 (U251 CNS): 10.5 µM
TGI (U251 CNS): > 71.6 µM
GI50 (HCT-116 colon): 13.3 µM
TGI (HCT-116 colon): > 100 µM
GI50 (SK-MEL-5 melanoma): 12.1 µM
TGI (SK-MEL-5 melanoma): > 40.7 µM
GI50 (HOP-92 NSCLC): 4.22 µM
TGI (HOP-92 NSCLC): 33.5 µM
GI50 (MDA-MB-435): 4.33 µM
TGI (MDA-MB-435): > 22.9 µM
GI50 (SNB-19 CNS): 16 µM
TGI (SNB-19 CNS): 99.3 µM
GI50 (OVCAR-5 ovarian): 41.5 µM
TGI (OVCAR-5 ovarian): > 100 µM
GI50 (SNB-75 CNS): 2.08 µM
TGI (SNB-75 CNS): 11.1 µM
GI50 (IGROV1 ovarian): 11.5 µM
TGI (IGROV1 ovarian): > 83.1 µM
GI50 (SW-620 colon): > 22.4 µM
TGI (SW-620 colon): > 100 µM
GI50 (SK-MEL-28 melanoma): 14.3 µM
TGI (SK-MEL-28 melanoma): > 91.7 µM
GI50 (ACHN renal): 23.1 µM
TGI (ACHN renal): > 100 µM
GI50 (M14 melanoma): > 22.5 µM
TGI (M14 melanoma): > 100 µM
GI50 (OVCAR-4 ovarian): 10.1 µM
TGI (OVCAR-4 ovarian): 66.2 µM
GI50 (SF-268 CNS): 9.89 µM
TGI (SF-268 CNS): 40.5 µM
GI50 (SN12C renal): 21.2 µM
TGI (SN12C renal): > 100 µM
GI50 (NCI/ADR-RES ovarian): 8.4 µM
TGI (NCI/ADR-RES ovarian): 44.4 µM
GI50 (UACC-257 melanoma): 19.7 µM
TGI (UACC-257 melanoma): > 74.6 µM
GI50 (MOLT-4 leukemia): > 23 µM
TGI (MOLT-4 leukemia): > 100 µM
TGI (HL-60(TB) leukemia): > 100 µM
TGI (HT29 colon): > 100 µM
GI50 (NCI-H460 lung): 12.6 µM
TGI (NCI-H460 lung): > 100 µM
GI50 (T-47D breast): 12.7 µM
TGI (T-47D breast): > 100 µM
GI50 (A498 renal): 19.2 µM
TGI (A498 renal): 82.2 µM
GI50 (NCI-H522 lung): 10.1 µM
TGI (NCI-H522 lung): > 95.3 µM
GI50 (LOX IMVI melanoma): 18.7 µM
TGI (LOX IMVI melanoma): > 100 µM
GI50 (KM12 colon): 26.2 µM
TGI (KM12 colon): > 100 µM
GI50 (SK-OV-3 ovarian): 13.2 µM
TGI (SK-OV-3 ovarian): 45.8 µM
GI50 (CAKI-1 renal): 15.3 µM
TGI (CAKI-1 renal): > 51.1 µM
GI50 (SF-295 CNS): 11.6 µM
TGI (SF-295 CNS): 65.5 µM
GI50 (CCRF-CEM leukemia): > 21.6 µM
TGI (CCRF-CEM leukemia): > 100 µM
GI50 (HS 578T breast): 8.79 µM
TGI (HS 578T breast): > 67.4 µM
GI50 (MDA-MB-231 breast): 9.6 µM
TGI (MDA-MB-231 breast): 97.5 µM
GI50 (A549 NSCLC): 14 µM
TGI (A549 NSCLC): > 100 µM
GI50 (OVCAR-8 ovarian): 14.8 µM
TGI (OVCAR-8 ovarian): 52.2 µM
GI50 (EKVX NSCLC): 19.7 µM
TGI (EKVX NSCLC): > 100 µM
GI50 (UACC-62 melanoma): 8.47 µM
TGI (UACC-62 melanoma): 34 µM
GI50 (UO-31 renal): 14.7 µM
TGI (UO-31 renal): > 100 µM
GI50 (RPMI-8226 leukemia): > 28.8 µM
TGI (RPMI-8226 leukemia): > 100 µM
GI50 (K-562 leukemia): 73.4 µM
TGI (K-562 leukemia): > 100 µM
GI50 (HOP-62 NSCLC): 8.15 µM
TGI (HOP-62 NSCLC): 29.4 µM
GI50 (NCI-H226 lung): 12.3 µM
TGI (NCI-H226 lung): 49.8 µM
GI50 (PC-3 prostate): 14.7 µM
TGI (PC-3 prostate): > 100 µM
GI50 (MALME-3M melanoma): 10.2 µM
TGI (MALME-3M melanoma): 40.2 µM
GI50 (RXF 393 renal): 5.33 µM
TGI (RXF 393 renal): 15.6 µM
GI50 (HCT-15 colon): 12 µM
TGI (HCT-15 colon): > 100 µM
GI50 (SR leukemia): 49.7 µM
TGI (SR leukemia): > 100 µM
GI50 (DU-145 prostate): 45.5 µM
TGI (DU-145 prostate): > 100 µM
GI50 (NCI-H23 lung): 16.6 µM
TGI (NCI-H23 lung): > 86.6 µM
